Results from patent US11253524B2 (Gilead Sciences, Inc., priority 2018, dated 2022).
Marks after values point to notes of the source that are not given here.

Experiments:
[1] = Phase 1 mass-balance study, [14C]bictegravir metabolite profiling in plasma, urine and feces; conditions: for % of plasma AUC0-72 h of total radioactivity: human plasma, AUC pool 0-72 h, single oral 100 mg [14C]bictegravir; for % of administered dose in feces: feces pooled per individual subject, 0 to 144 hours postdose, average of 8 subjects; for % of administered dose in urine: human urine pooled 0 to 96 hours postdose
Excerpt: A total of eight patents were enrolled. Subjects were healthy male nonsmokers, 18 to 45 years of age, inclusive, with a body mass index (BMI) from 19 to 30 kg/m2, inclusive, normal 12-lead electrocardiogram (ECG), normal renal function, no significant medical history, and in good general health, as determined by the investigator at the screening evaluation performed no more than 28 days prior to the scheduled first dose.
Treatment involved a single, oral dose followed by a 6- to 21-day sample collection period, the exact duration of which was based on recovery of radiolabeled drug. […] Following administration, the dosing container was rinsed twice, each rinse with approximately 50 mL of cranberry juice, and administered to the subject. The entire study drug solution and cranberry juice rinse (total of approximately 140 mL) was taken within a 10 minute window. […]
Urine: Metabolite profiling and quantitation in urine was performed with samples pooled for individual subjects within the period of 0 to 96 hours postdose.
Feces: Metabolite profiling and quantitation in feces was performed with the feces samples pooled for individual subjects.
Metabolite Quantitation: LC-Radio-chromatograms of the pooled plasma, urine, and feces samples were obtained.

[2] = biological target: T1, human hepatic microsomal UGT1A1 (Homo sapiens, UniProt P22309); assay: biochemical; conditions: for Stimulation of enzyme activity, peak increase: at 200 μM
T1 sequence (P22309 26-533): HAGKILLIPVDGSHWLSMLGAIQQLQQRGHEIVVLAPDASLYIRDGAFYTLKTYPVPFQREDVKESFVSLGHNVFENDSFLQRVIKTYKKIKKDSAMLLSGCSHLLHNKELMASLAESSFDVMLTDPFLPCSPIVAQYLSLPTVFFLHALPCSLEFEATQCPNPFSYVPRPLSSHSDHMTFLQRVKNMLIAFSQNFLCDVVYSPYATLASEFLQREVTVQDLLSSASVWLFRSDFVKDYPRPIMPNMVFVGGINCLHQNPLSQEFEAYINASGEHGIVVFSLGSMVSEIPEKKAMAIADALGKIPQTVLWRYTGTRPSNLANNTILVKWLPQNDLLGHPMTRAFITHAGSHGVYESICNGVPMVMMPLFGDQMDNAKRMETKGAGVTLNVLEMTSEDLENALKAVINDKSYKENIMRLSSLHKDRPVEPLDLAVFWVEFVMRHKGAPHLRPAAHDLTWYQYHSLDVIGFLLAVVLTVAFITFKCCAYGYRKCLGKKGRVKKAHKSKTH
Experimental: The conditions for the assay were determined to be linear with respect to microsomal protein concentration and incubation time. […] Microsomal UGT1A1 activity was determined in duplicate. […] Diluted microsomal fraction was incubated on ice for 15 minutes with alamethicin, magnesium chloride and SACLAC. Substrate and inhibitor were then added and the mixture warmed to 37° C. for 0.5 minute. The reaction was initiated by the addition of UDP glucuronic acid in potassium phosphate buffer. The incubation continued at 37° C. with shaking and no light exposure for 2 minutes. Reactions were terminated by addition of one volume of 200 mM ascorbic acid in methanol, containing 200 nM 2-(N-(2-ethylphenyl)methylsulfonamido)-N-(2-(pyridin-2-ylthio)ethyl)acetamide as the internal standard.
A Shimadzu UFLC XR UPLC system was used for analysis. The column used was a Thermo-Hypersil Gold 1.9 μm C18 column (30×2.1 mm) held at 60° C. Mobile phases were; A: water containing 0.1% (v/v) formic acid, and B: acetonitrile containing 0.1% (v/v) formic acid, pumped at 0.7 mL/minute. Elution was achieved by a series of linear gradients over 2 minutes. The mass spectrometer was an Applied Biosciences SCIEX QTRAP 5500 triple quadrupole mass spectrometer with an electrospray interface operating in positive ion mode. Quantification was by metabolite/internal standard peak area ratio (PAR).
MS/MS transitions ([M+H]+) of m/z 761.2/475.1 and 937.2/475.1 for the monoglucuronide and diglucuronide, respectively. The PAR values for the two monoglucuronides were combined for quantification.
Reaction velocities were calculated from the rates of formation of the metabolites and were compared to those seen with the vehicle control (100% activity). IC50 values were calculated by non-linear regression using GraphPad Prism 7.03 and a sigmoidal three parameter inhibition model. […] During the testing period the inhibitory potency of atazanavir was determined four times, with each concentration tested in duplicate in each determination. The data from all runs were pooled and a global fit performed to determine the lower plateau value. […] For atazanavir, the IC50 values from the four duplicate runs were combined to generate a summary geometric mean and multiplicative standard deviation for this positive control inhibitor.

SMILES	% of plasma AUC0-72 h of total radioactivity [1]	IC50 [2] [µM]	% of administered dose in feces [1] [%]	% of administered dose in urine [1] [%]	Stimulation of enzyme activity, peak increase [2] [%]	% of plasma AUC0-72 h of total radioactivity ([1]; listed as [^14C]Bictegravir) [%]	% of plasma AUC0-72 h of total radioactivity ([1]; listed as [^14C]bictegravir)
O=C(NCc1c(F)cc(F)c(OS(=O)(=O)O)c1F)c1cn2c(c(O)c1=O)C(=O)N1C(C2)O[C@@H]2CC[C@H]1C2 (stereo partly shown) [Metabolite M20]	20.1%	153	–	–	–	–	–
O=C(NCc1c(F)cc(F)c(O)c1F)c1cn2c(c(O)c1=O)C(=O)N1[C@H]3CC[C@H](C3)O[C@@H]1C2 [Metabolite M23]	0.2^c %	256	3.6	–	–	–	–
O=C(NCc1c(F)cc(F)cc1F)c1cn2c(c(O[C@@H]3O[C@H](C(=O)O)[C@@H](O)[C@H](O)[C@H]3O)c1=O)C(=O)N1[C@H]3CC[C@H](C3)O[C@@H]1C2 [Metabolite M15]	8.6%	> 300	–	21.4	21	–	–
O=C(NCc1c(F)cc(F)cc1F)c1cn2c(c(O)c1=O)C(=O)N1[C@H]3CC[C@H](C3)O[C@@H]1C2 [BIC, bictegravir, reference compound]	67.9%	> 300	30.6	3.6	76	67.9	approximately 67.9%
